The term inhibition denotes the percentage by which the read-out fell short of the control. As usually defined, the IC50 is the concentration that gives 50% inhibition. Low values mean greater potency in that assay, high ones weaker potency in that assay.

This is an account of results in ChEMBL document CHEMBL2010790, “Growth inhibition and mechanism of action of p-dodecylaminophenol against refractory human pancreatic cancer and cholangiocarcinoma” (Bioorg Med Chem, 2012).

In data set [1] the test system is MIA PaCa-2. In words: Growth inhibition of human MIAPaCa2 cells at 10 uM after 72 hrs by MTT assay relative to control. Format: functional. Particulars: for inhibition of growth at 10 µM: MIA PaCa-2, 72 h, read-out: GI. For orientation: Tetrazolium assays rely on reduction of a dye to a coloured formazan, in cell work by metabolically active cells.
Data set [2] relates to HuCCT-1. In words: (§1) Cytotoxicity against human HuCCT1 cells after 72 hrs by MTT assay. Format: functional, cell-based.
Data set [3] can be described thus: Growth inhibition of human HuCCT1 cells at 4 uM after 72 hrs by MTT assay relative to control. Particulars: HuCCT-1, 72 h, read-out: GI. Format: functional.
The subject of data set [4] is MIA PaCa-2. The data set is described as follows: Induction of apoptosis in human MIAPaCa2 cells after 72 hrs. Format: functional, cell-based.
The test system of data set [5] is HuCCT-1. The data set is described as follows: (§2) Growth inhibition of human HuCCT1 cells at 10 uM after 72 hrs by MTT assay relative to control. Format: functional.
For data set [6], the system named is MIA PaCa-2. The data set is described as follows: Downregulation of K-ras in human MIAPaCa2 cells at 10 uM after 72 hrs by agarose gel electrophoresis. Format: functional, cell-based.
Data set [7] relates to MIA PaCa-2. In words: Growth inhibition of human MIAPaCa2 cells at 4 uM after 72 hrs by MTT assay relative to control. Format: functional. Particulars: MIA PaCa-2, 72 h, read-out: GI.
In data set [8] the test system is HuCCT-1. The data set is described as follows: Induction of apoptosis in human HuCCT1 cells after 72 hrs. Format: functional, cell-based.
Data set [9] deals with HuCCT1. In words: Inhibition of ERK phosphorylation in human HuCCT1 cells assessed as reduction in phospho-ERK levels at 6 uM after 48 hrs by immunoblotting. Format: cell-based.
Data set [10] has as its system MIA PaCa-2. In words: Downregulation of K-ras in human MIAPaCa2 cells at 7 uM after 72 hrs by agarose gel electrophoresis. Format: functional, cell-based.
The nature of data set [11]: as §1. Format: functional, cell-based. Particulars: HuCCT-1, 72 h.
Data set [12] relates to MIA PaCa-2. In words: Cytotoxicity against human MIAPaCa2 cells after 72 hrs by MTT assay. Format: functional, cell-based. Particulars: MIA PaCa-2, 72 h.
Data set [13] is described as follows: Downregulation of K-ras in human HuCCT1 cells at 2 uM after 72 hrs by agarose gel electrophoresis. Format: functional, cell-based. To be noted: HuCCT-1.
Data set [14] can be described thus: Downregulation of K-ras in human HuCCT1 cells at 6 uM after 72 hrs by agarose gel electrophoresis. Format: functional, cell-based. To be noted: HuCCT-1.
Data set [15] relates to MIA PaCa-2. In words: Inhibition of ERK phosphorylation in human MIAPaCa2 cells assessed as reduction in phospho-ERK levels at 7 uM after 48 hrs by immunoblotting. Format: cell-based. In general terms: Immunoblotting shows a protein as a band on a membrane.
For data set [16], the system named is MIA PaCa-2. The data set is described as follows: Inhibition of Akt phosphorylation in human MIAPaCa2 cells assessed as effect on […] at 7 uM after 48 hrs by immunoblotting. Format: cell-based.
For data set [17], the system named is HuCCT1. The data set is described as follows: Inhibition of Akt phosphorylation in human HuCCT1 cells assessed as reduction in phospho-Akt levels at 6 uM after 48 hrs by immunoblotting. Format: cell-based.
Data set [18] in a line: Downregulation of H-ras in human HuCCT1 cells at 6 uM after 72 hrs by agarose gel electrophoresis. Format: functional, cell-based. Particulars: HuCCT-1.
The nature of data set [19]: Cellular uptake in human HuCCT1 cells at 10 uM up to 30 mins by HPLC analysis. Format: ADME, cell-based. To be noted: hucct-1, 0.5 h.
A short description of data set [20]: as §2. Format: functional. Particulars: HuCCT-1, 72 h, read-out: GI.
A short description of data set [21]: Downregulation of N-ras in human HuCCT1 cells at 2 uM after 72 hrs by agarose gel electrophoresis. Format: functional, cell-based. To be noted: HuCCT-1.
Data set [22] in a line: Cellular uptake in human HuCCT1 cells at 10 uM measured after 30 mins up to 60 mins. Format: ADME, cell-based. To be noted: hucct-1, 10 µM.
Data set [23] deals with MIA PaCa-2. The data set is described as follows: Inhibition of ERK phosphorylation in human MIAPaCa2 cells assessed as reduction in phospho-ERK levels at 10 uM after 48 hrs by immunoblotting. Format: cell-based.
The nature of data set [24]: Growth inhibition of human HuCCT1 cells at 1 uM after 72 hrs by MTT assay relative to control. Format: functional. To be noted: HuCCT-1, 72 h, read-out: GI.
Data set [25] has as its system HuCCT1. The data set is described as follows: Inhibition of Akt phosphorylation in human HuCCT1 cells assessed as reduction in phospho-Akt levels at 2 uM after 48 hrs by immunoblotting. Format: cell-based.
Another data set relates to Nucleic Acid. The data set is described as follows: Ratio of drug level in human MIAPaCa2 cells to human HuCCT1 cells at 30 mins. Format: ADME, cell-based. To be noted: mia paca-2, 0.5 h.
The subject of data set [26] is MIA PaCa-2. In words: Inhibition of Akt phosphorylation in human MIAPaCa2 cells assessed as effect on […] at 10 uM after 48 hrs by immunoblotting. Format: cell-based.
The subject of data set [27] is MIA PaCa-2. The data set is described as follows: Growth inhibition of human MIAPaCa2 cells at 1 uM after 72 hrs by MTT assay. Format: functional. Particulars: MIA PaCa-2, 72 h, read-out: GI.
Data set [28] deals with MIA PaCa-2. In words: Cellular uptake in human MIAPaCa2 cells at 10 uM up to 30 mins by HPLC analysis. Format: ADME, cell-based. To be noted: mia paca-2, 0.5 h.
A short description of data set [29]: Downregulation of H-ras in human HuCCT1 cells at 2 uM after 72 hrs by agarose gel electrophoresis. Format: functional, cell-based. To be noted: HuCCT-1.
The subject of data set [30] is HuCCT1. In words: Inhibition of ERK phosphorylation in human HuCCT1 cells assessed as reduction in phospho-ERK levels at 2 uM after 48 hrs by immunoblotting. Format: cell-based.

Activity calls are given as the source filed them. The calls are words filed in the database; no cut-off is given here.

For the compound `CCCCCCCCCCNc1ccc(O)cc1`, in the data set with MIA PaCa-2 [1], the inhibition of growth at 10 µM worked out at 55%. Also, in the data set with HuCCT-1 [2], the “growth inhibition (GI)” value is “Dose-dependent effect”. In addition, the inhibition of growth at 4 µM in data set [3] amounted to 82%.
On to `CC1=C(/C=C/C(C)=C/C=C/C(C)=C/C(=O)Nc2ccc(O)cc2)C(C)(C)CCC1` [FENRETINIDE], for which the outcome in the data set with MIA PaCa-2 [4] and in the data set with HuCCT-1 [8] was inactive. Further, the “growth inhibition (GI)” value with HuCCT-1 [5] and in the data set on MIA PaCa-2 [1] was “Active” in each case. In addition, the result (in the data set on MIA PaCa-2 [6]; in the data set with MIA PaCa-2 [10]; in [13]; in [14]; in data set [18]) was Active. In addition, the inhibition of growth at 4 µM with MIA PaCa-2 [7] turned out to be 8%; in data set [3] it was 17%. Further, the inhibition result in the data set with HuCCT1 [9], in the data set with MIA PaCa-2 [15] and in the data set on HuCCT1 [17] was “inactive” in each case. In addition, the “growth inhibition (GI)” value in the data set on HuCCT-1 [2] is “Dose-dependent effect”. Besides, the IC50 in data set [11] is 6 µM; in the data set on MIA PaCa-2 [12], 7 µM. Also, the inhibition in the data set on MIA PaCa-2 [16] worked out at 30%.
Take `CCCCCCCCCC(=O)Nc1ccc(O)cc1`: in the data set on MIA PaCa-2 [1], the inhibition of growth at 10 µM worked out at 0%. In the data set with HuCCT-1 [2], the “growth inhibition (GI)” value was “Dose-dependent effect”. For the same compound, the inhibition of growth at 4 µM in data set [3] came to 23%.
In the case of `CCCCCCCCCCCCNc1ccc(O)cc1`, the outcome in the data set with MIA PaCa-2 [4] and in the data set with HuCCT-1 [8] was inactive. Besides, the figures for the Drug uptake result (in data set [19]; in [22]; in the data set on MIA PaCa-2 [28]) were “Active”, “Not Active” and “Active”, respectively. Further, the inhibition of growth at 10 µM came to 84% in data set [20] and 50% in the data set with MIA PaCa-2 [1]. Moreover, the result (in data set [21]; with MIA PaCa-2 [6]; in [29]; with MIA PaCa-2 [10]; in [13]; in [14]) was Active. Also, the inhibition in the data set on MIA PaCa-2 [23] worked out at 50%; in the data set on HuCCT1 [25] it was 20%; with HuCCT1 [30] it was 21%. In addition, the inhibition of growth at 1 µM is 35% in data set [24] and 20% in the data set on MIA PaCa-2 [27]. Also, the Ratio in the data set with Nucleic Acid came out at 1.8. For the same compound, the inhibition result in the data set on MIA PaCa-2 [26] is “inactive”. The inhibition of growth at 4 µM in the data set on MIA PaCa-2 [7] was 45%; in data set [3], 82%. The “growth inhibition (GI)” value in the data set with HuCCT-1 [2] was “Dose-dependent effect”. The IC50 came out at 2 µM in data set [11] and 10 µM in the data set with MIA PaCa-2 [12].
As for `CC1=C(/C=C/C(C)=C/C=C/C(C)=C/C(=O)O)C(C)(C)CCC1` [TRETINOIN], the results for the inhibition of growth at 10 µM (in data set [20]; in the data set on MIA PaCa-2 [1]) were 28% and 18%, respectively. The results for the inhibition of growth at 4 µM (in the data set with MIA PaCa-2 [7]; in data set [3]) were 15% and 17%, respectively.
With `CCCCCCCCCCCC(=O)Nc1ccc(O)cc1`, in the data set on MIA PaCa-2 [1], the inhibition of growth at 10 µM turned out to be 0%. Moreover, the “growth inhibition (GI)” value in the data set with HuCCT-1 [2] was “Dose-dependent effect”. The inhibition of growth at 4 µM in data set [3] amounted to 23%.
